In patent US20120115852A1, “HETEROCYCLIC COMPOUNDS AS AUTOTAXIN INHIBITORS” (Merck Patent Gesellschaft Mit Beschrankter Haftung, priority 2009, published 2012):

Target: T1, recombinant autotaxin (Homo sapiens, UniProt Q13822)
T1 construct: made in house; host or cells: Hi5 insect cells (baculovirus)
Assay: Autotaxin test (enzyme test), Amplex Red fluorescence with LPC substrate
Format: biochemical
Details: autotaxin inhibition (enzyme test); for remaining activity at 10 µM: 10 μM compound, read-out: % Control at 10 μM
Method in brief: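 Purified recombinant autotaxin (baculovirus Hi5-expressed) pre-incubated with compound 30 min at 22° C, then LPC (final 75 μM) added and reacted 90 min at 37° C in Tris pH 8 buffer with CaCl2. Choline released was coupled via alkaline phosphatase, choline oxidase and peroxidase to Amplex Red; resorufin fluorescence read in kinetic mode (ex 485/em 612 nm).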

remaining activity at 10 µM	IC50	SMILES
56%		O=C1Nc2ccc(-c3ccccc3)cc2C(=O)N2CCN(C(=O)[C@@H]3CSCN3)C[C@H]12 [Compound B18]
3%	100 to 1000 nM	CC(C)(C)CC(=O)N1CCN2C(=O)c3cc(-c4ccc(Cl)cc4F)ccc3N(CCO)C(=O)[C@H]2C1 [Compound A152]
75%		CS(=O)(=O)N1CCN2C(=O)c3cc(-c4ccccc4F)ccc3NC(=O)[C@H]2C1 [Compound B1]
6%	100 to 1000 nM	O=C1Nc2ccc(-c3ccc(Cl)cc3F)cc2C(=O)N2CCN(C(=O)[C@@H]3CCCN3C3CCCNC3)C[C@H]12 (stereo partly drawn) [Compound A123, (R)-7-(4-Chloro-2-fluorophenyl)-2-((S)-1-piperidin-3-ylpyrrolidine-2-carbonyl)-1,3,4,11a-tetrahydro-2H,10H-2,4a,10-triazadibenzo[a,d]cycloheptene-5,11-dione]
71%		CC(C)(C)[C@@H](NC=O)C(=O)N1CCN2C(=O)c3cc(-c4ccc(Cl)cc4)ccc3NC(=O)C2C1 (stereo partly drawn) [Compound A55, N-{(R)-1-[7-(4-Chlorophenyl)-5,11-dioxo-3,4,5,10,11,11a-hexahydro-1H-2,4a,10-triaza-dibenzo[a,d]cycloheptene-2-carbonyl]-2,2-dimethylpropyl}formamide]
31%	> 1000 nM	O=C1Nc2ccc(-c3ccc(Cl)cc3)cc2C(=O)N2CCN(C(=O)[C@H](O)c3ccccc3)CC12 (stereo partly drawn) [Compound A43, 7-(4-Chlorophenyl)-2-((R)-2-hydroxy-2-phenylacetyl)-1,3,4,11a-tetrahydro-2H,10H-2,4a,10-triazadibenzo[a,d]cycloheptene-5,11-dione]
82%	> 1000 nM	O=C1Nc2ccc(-c3ccc(Cl)cc3)cc2C(=O)N2CCN(C(=O)[C@@H]3CCCCN3)CC12 (stereo partly drawn) [Compound A21, 7-(4-Chlorophenyl)-2-((S)-piperidine-2-carbonyl)-1,3,4,11a-tetrahydro-2H,10H-2,4a,10-triaza-dibenzo[a,d]cycloheptene-5,11-dione]
45%	> 1000 nM	CC(C)(C)CC(=O)N1CCN2C(=O)c3cc(-c4ccc(Cl)cc4)cnc3NC(=O)C2C1 (stereo not shown) [Compound A139, 3-(4-Chlorophenyl)-8-(3,3-dimethylbutyryl)-7,8,9,9a-tetrahydro-6H,11H-1,5a,8,11-tetraazadibenzo-[a,d]cycloheptene-5,10-dione]
38%	> 1000 nM	O=C1Nc2ccc(-c3ccccc3F)cc2C(=O)N2CCN(C(=O)c3ccc4[nH]nnc4c3)CC12 (stereo not shown) [Compound A14, 2-(1H-Benzotriazole-5-carbonyl)-7-(2-fluorophenyl)-1,3,4,11a-tetrahydro-2H,10H-2,4a,10-triaza-dibenzo[a,d]cycloheptene-5,11-dione]
5%	> 1000 nM	O=C1Nc2ccc(-c3ccc(Cl)cc3)cc2C(=O)N2CCN(C(=O)[C@H](O)C3CCCCC3)CC12 (stereo partly drawn) [Compound A112, 7-(4-Chlorophenyl)-2-((R)-2-cyclohexyl-2-hydroxy-acetyl)-1,3,4,11a-tetrahydro-2H,10H-2,4a,10-triazadibenzo[a,d]cycloheptene-5,11-dione]
75%		NC(=O)C(=O)N1CCN2C(=O)c3cc(-c4ccco4)ccc3NC(=O)[C@H]2C1 [Compound A4, 2-((R)-7-Furan-2-yl-5,11-dioxo-3,4,5,10,11,11a-hexahydro-1H-2,4a,10-triazadibenzo[a,d]cyclo-hepten-2-yl)-2-oxoacetamide]
	> 1000 nM	O=C1Nc2ccc(-c3ccc(Cl)cc3)cc2C(=O)N2CCN(C(=O)[C@@H](O)c3ccccc3)C[C@H]12 [Compound A1, (R)-7-(4-Chlorophenyl)-2-((S)-2-hydroxy-2-phenylacetyl)-1,3,4,11a-tetrahydro-2H,10H-2,4a,10-triazadibenzo[a,d]cycloheptene-5,11-dione]
51%	> 1000 nM	O=C1Nc2ccc(-c3ccc(Cl)cc3)cc2C(=O)N2CCN(C(=O)Cc3ccccn3)CC12 (stereo not shown) [Compound A29, 7-(4-Chlorophenyl)-2-(2-pyridin-2-ylacetyl)-1,3,4,11a-tetrahydro-2H,10H-2,4a,10-triaza-dibenzo[a,d]cycloheptene-5,11-dione]
20%	> 1000 nM	O=C1Nc2ccc(-c3ccc(Cl)cc3F)cc2C(=O)N2CCN(C(=O)[C@@H]3CCCN3C3CCNCC3)C[C@@H]12 [Compound A126, (S)-7-(4-Chloro-2-fluorophenyl)-2-((S)-1-piperidin-4-ylpyrrolidine-2-carbonyl)-1,3,4,11a-tetrahydro-2H,10H-2,4a,10-triazadibenzo[a,d]cycloheptene-5,11-dione]
26%	> 1000 nM	O=C1Nc2ccc(-c3ccc(Cl)cc3)cc2C(=O)N2CCN(C(=O)C3CCCCC3)C[C@H]12 [Compound B17]
61%	> 1000 nM	CS(=O)(=O)CC(=O)N1CCN2C(=O)c3cc(-c4ccc(Cl)cc4)ccc3NC(=O)C2C1 (stereo not shown) [Compound A22, 7-(4-Chlorophenyl)-2-(2-methanesulfonylacetyl)-1,3,4,11a-tetrahydro-2H,10H-2,4a,10-triaza-dibenzo[a,d]cycloheptene-5,11-dione]

remaining activity at 10 µM	IC50	SMILES
67%	> 1000 nM	CC(C)[C@H](N)C(=O)N1CCN2C(=O)c3cc(-c4ccc(Cl)cc4F)ccc3NC(=O)[C@H]2C1 [Compound A63, (R)-2-((S)-2-Amino-3-methylbutyryl)-7-(4-chloro-2-fluorophenyl)-1,3,4,11a-tetrahydro-2H,10H-2,4a,10-triazadibenzo[a,d]cycloheptene-5,11-dione]
	> 1000 nM	O=C1Nc2ccc(-c3ccc(Cl)cc3)cc2C(=O)N2CCN(C(=O)C3(c4ccc(Cl)cc4)CC3)CC12 (stereo not shown) [Compound A47, 7-(4-Chlorophenyl)-2-[1-(4-chlorophenyl)-cyclopropanecarbonyl]-1,3,4,11a-tetrahydro-2H,10H-2,4a,10-triazadibenzo[a,d]cycloheptene-5,11-dione]
86%		O=C1Nc2ccc(-c3cccs3)cc2C(=O)N2CCN(C(=O)[C@@H](O)c3ccccc3)C[C@H]12 [Compound A3, (R)-2-((S)-2-Hydroxy-2-phenylacetyl)-7-thiophen-2-yl-1,3,4,11a-tetrahydro-2H,10H-2,4a,10-triaza-dibenzo[a,d]cycloheptene-5,11-dione]
7%	> 1000 nM	O=C1Nc2ccc(-c3ccc(Cl)cc3)cc2C(=O)N2CCN(C(=O)C3CSC(c4ccncc4)N3)CC12 (stereo not shown) [Compound A71, 7-(4-Chlorophenyl)-2-(2-pyridin-4-ylthiazolidine-4-carbonyl)-1,3,4,11a-tetrahydro-2H,10H-2,4a,10-triazadibenzo[a,d]cycloheptene-5,11-dione]
7%	100 to 1000 nM	O=C1Nc2ccc(-c3ccc(Cl)c(F)c3)cc2C(=O)N2CCN(C(=O)[C@@H]3CCCN3C3CCNCC3)C[C@H]12 [Compound A102, (R)-7-(4-Chloro-3-fluorophenyl)-2-((S)-1-piperidin-4-ylpyrrolidine-2-carbonyl)-1,3,4,11a-tetrahydro-2H,10H-2,4a,10-triazadibenzo[a,d]cycloheptene-5,11-dione]
71%		O=C(O)CCC(=O)N1CCN2C(=O)c3cc(-c4ccc(Cl)cc4)ccc3NC(=O)[C@@H]2C1 [Compound B4]
12%	> 1000 nM	Cn1cc(CCC(=O)N2CCN3C(=O)c4cc(-c5ccc(Cl)cc5)ccc4NC(=O)C3C2)cn1 (stereo not shown) [Compound A26, 7-(4-Chlorophenyl)-2-[3-(1-methyl-1H-pyrazol-4-yl)-propionyl]-1,3,4,11a-tetrahydro-2H,10H-2,4a,10-triazadibenzo[a,d]cycloheptene-5,11-dione]
71%		O=C1Nc2ccc(-c3ccc(Cl)cc3)cc2C(=O)N2CCN(C(=O)c3cccs3)C[C@H]12 [Compound B20]
12%	> 1000 nM	O=C([C@@H]1CCCN1C1CCNCC1)N1CCN2C(=O)c3cc(-c4ccc(Cl)cc4F)ccc3N(CCC3CCNCC3)C(=O)[C@@H]2C1 [Compound A164]
-18%	> 1000 nM	CC(C)(C)[C@H](N)C(=O)N1CCN2C(=O)c3cc(-c4ccc(Cl)cc4)ccc3NC(=O)C2C1 (stereo partly drawn) [Compound A137, 2-((S)-2-Amino-3,3-dimethylbutyryl)-7-(4-chloro-phenyl)-1,3,4,11a-tetrahydro-2H,10H-2,4a,10-triazadibenzo[a,d]cycloheptene-5,11-dione]
48%	> 1000 nM	O=C1Nc2ccc(-c3ccc(Cl)cc3)cc2C(=O)N2CCN(C(=O)C(O)c3ccccc3Cl)CC12 (stereo not shown) [Compound A40, 7-(4-Chlorophenyl)-2-[2-(2-chlorophenyl)-2-hydroxyacetyl]-1,3,4,11a-tetrahydro-2H,10H-2,4a,10-triazadibenzo[a,d]cycloheptene-5,11-dione]
41%	> 1000 nM	O=C1Nc2ccc(-c3ccccc3F)cc2C(=O)N2CCN(C(=O)C3CCCCC3)C[C@H]12 [Compound B19]
21%	100 to 1000 nM	O=C1Nc2ccc(-c3ccc(Cl)cc3F)cc2C(=O)N2CCN(S(=O)(=O)CC3CCCCC3)C[C@H]12 [Compound A174]
8%	100 to 1000 nM	CC(C)(C)[C@H](NC1CCNCC1)C(=O)N1CCN[C@@H](C(=O)Nc2ccc(-c3ccc(Cl)cc3F)cc2C(=O)O)C1 [Compound 47, 4′-chloro-4-({(R)-4-[(S)-3,3-dimethyl-2-(piperidin-4-ylamino)-butyryl]piperazine-2-carbonyl}amino)-2′-fluorobiphenyl-3-carboxylic acid]
84%		CC(C)(C)CC(=O)N1CCN2C(=O)c3cc(-c4ccc(C#N)cc4)ccc3NC(=O)C2C1 (stereo not shown) [Compound A132, 4-[2-(3,3-Dimethylbutyryl)-5,11-dioxo-1,2,3,4,5,10,11,11a-octahydro-2,4a,10-triaza-dibenzo[a,d]cyclohepten-7-yl]benzonitrile]
